Measurements reported in article PMC7734798 (ACS Medicinal Chemistry Letters, 2020).
Values joined by “and” are separate entries in the source; they are usually repeats but may differ in a detail not shown here. Equal values may be shown once. “Also recorded” adds a separate entry of the source. Read-outs that look alike come from different tables or passages of the source.

Columns and labels:
[1] = PAMPA-BBB permeation assay; conditions: for Papp at 100 µM: PAMPA, pH 7.4; for BBB penetration estimation, CNS (+/−): PAMPA-BBB prediction
iNOS = assay: Immunomodulation assay: iNOS (M1 marker) expression in LPS-treated N9 microglial cells (Western blot); assay type: cell-based, mouse; conditions: 100 ng/mL LPS, 6 h pretreatment + 24 h, even at 0.5 μM
From the text: (§1) Microglia, essential regulators of neuroinflammatory processes, can be polarized to two distinct activation states: M1 and M2. M1 microglia have proinflammatory, neurotoxic properties and are modeled in vitro through lipopolysaccharides (LPS) activation. Alternatively, M2 microglia are involved in anti-inflammatory processes, contributing to trophic support of neurons and neuroprotective functions. A marked microglial activation with high expression levels of proinflammatory genes is found in MS lesions.[23] Conversely, the neuroprotective effects of the MS drug glatiramer are mediated by activated M2 microglia.[24] To this end, we evaluated whether 1 and 2 modulate microglial shift from an M1 neurotoxic phenotype to an M2 neuroprotective one. […] After pretreatment for 6 h and administration for a further 24 h, the microglial phenotype was evaluated through Western blot analysis of the M1-iNOS (inducible Nitric Oxide Synthase) and M2-TREM2 (Triggering Receptor Expressed on Myeloid cells 2) markers (Figure 6). We also assessed nitrite production, due to iNOS induction, in the incubation media. […]
(§2) Nitrite accumulation in cell media was assayed by the Griess reaction. […] Absorbance was read at 540 nm using a plate reader after 15 min of incubation at room […]
(§3) After 24 hours, the viability was evaluated through the MTT assay. […]

N9 microglial cells = assay: Nitrites measurement (Griess reaction) in medium of LPS-treated N9 microglial cells; assay type: cell-based, mouse; conditions: 100 ng/mL LPS, 6 h pretreatment + 24 h
From the text: as §1
medium/well and treated with increasing concentrations of the compounds (0.5, 1, 5 and 10 μM), in serum-free DMEM for 24 hours. After 24 hours, the viability was evaluated through the MTT assay. […]

TREM2 = assay: Immunomodulation assay: TREM2 (M2 marker) expression in LPS-treated N9 microglial cells (Western blot); assay type: cell-based, mouse; conditions: 100 ng/mL LPS, 6 h pretreatment + 24 h
From the text: as §1, §2, §3

[2] = tested on: human liver carcinoma immortalized cell line (HepG2); conditions: for cell survival/death in HepG2 cells, % mean ± SE of controls (MTT): 24 h treatment; for hepatotoxicity in HepG2 (in words): even at the higher tested concentrations

With CC/C=C\C/C=C\C/C=C\CCCCCCCC(=O)NCCNC(=O)C(CCC)CCC [compound 1] the Papp at 100 µM [1] was 28 ± 5.3 ×10⁻⁶ cm/s, the “BBB penetration estimation, CNS (+/−)” value [1] was “high BBB permeability; also recorded: CNS +” and the “microglia production of M1 proinflammatory marker iNOS” value (iNOS) was “significantly decrease”. The “levels of nitrites in incubation medium” value (N9 microglial cells) was “reduced their concentration more effectively than VPA”, the “expression of TREM2 (M2 marker)” value (TREM2) was “unchanged expression” and the “cell survival/death in HepG2 cells, % mean ± SE of controls (MTT)” value ([2]; 5 μM) was 87 ± 13%. The “cell survival/death in HepG2 cells, % mean ± SE of controls (MTT)” value ([2]; 10 μM) was 93 ± 5%, the “cell survival/death in HepG2 cells, % mean ± SE of controls (MTT)” value ([2]; 25 μM) was 81 ± 10% and > 80% and the “cell survival/death in HepG2 cells, % mean ± SE of controls (MTT)” value ([2]; 50 μM) was 64 ± 8%. For the same compound, the “hepatotoxicity in HepG2 (in words)” value [2] was “low hepatotoxicity”.

With CC/C=C\C/C=C\C/C=C\CCCCCCCC(=O)NCCOC(=O)C(CCC)CCC [compound 2] the Papp at 100 µM [1] was 14.6 ± 1.61 ×10⁻⁶ cm/s, the “BBB penetration estimation, CNS (+/−)” value [1] was “BBB-permeable; also recorded: CNS +” and the “microglia production of M1 proinflammatory marker iNOS” value (iNOS) was “significantly decrease”. The “levels of nitrites in incubation medium” value (N9 microglial cells) was “reduced their concentration more effectively than VPA”, the “expression of TREM2 (M2 marker)” value (TREM2) was “unchanged expression” and the “cell survival/death in HepG2 cells, % mean ± SE of controls (MTT)” value ([2]; 5 μM) was 102 ± 10%. The “cell survival/death in HepG2 cells, % mean ± SE of controls (MTT)” value ([2]; 10 μM) was 104 ± 4%, the “cell survival/death in HepG2 cells, % mean ± SE of controls (MTT)” value ([2]; 25 μM) was 84 ± 6% and > 80% and the “cell survival/death in HepG2 cells, % mean ± SE of controls (MTT)” value ([2]; 50 μM) was 80 ± 9%. The “hepatotoxicity in HepG2 (in words)” value [2] was “low hepatotoxicity”.
